According to US20260193271A1, “PAN-KRAS INHIBITOR COMPOUND” (ADLAI NORTYE BIOPHARMA CO., LTD., priority 2022, published 2026):

How the values were obtained:
[1] = system: AsPC-1 (G12D); experiment: In vitro cell proliferation inhibition test (CellTiter-Glo), AsPC-1; assay type: cell-based; settings: Homo sapiens, ASPC1, AsPC-1 pancreas cell line, KRAS (p.G12D), 72 h co-incubation
Method in brief: (§1)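 IC50 was derived by four-parameter fitting of normalized CellTiter-Glo signals. These were measured after 72 h co-incubation with compound at 10 concentrations, 3-fold serial, final maximum 10 μM. Plating was 1000-5000 cells/well, adjusted to growth rate, with overnight attachment at 37 °C, 5% CO2.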

[2] = system: SW480 (G12V); experiment: In vitro cell proliferation inhibition test (CellTiter-Glo), SW480; assay type: cell-based; settings: Homo sapiens, SW480 colon cell line, KRAS (p.G12V), 72 h co-incubation
Method in brief: as §1

| Structure (SMILES) | IC50 [1] [nM] | IC50 [2] [nM] |
| --- | --- | --- |
| CCn1c(-c2cc(-c3cc([C@@H]4COCCN4C)on3)cnc2[C@H](C)OC)c2c3cc(ccc31)-c1csc(n1)C[C@H](NC(=O)[C@H]1[C@H](C)[C@@H]1C)C(=O)N1CCC[C@H](N1)C(=O)OCC(C)(C)C2 (atropisomer, axis not shown) [Compound 32, (1r,2R,3S)-N-((6^3S,4S,Z)-1^1-ethyl-1^2-(2-((S)-1-methoxyethyl)-5-(5-((S)-4-methylmorpholin-3-yl)isoxazol-3-yl)pyridin-3-yl)-10,10-dimethyl-5,7-dioxo-6^1,6^2,6^3,6^4,6^5,6^6-hexahydro-1^1H-8-oxa-2(4,2)-thiazola-1(5,3)-indola-6(1,3)-pyridazinacycloundecaphane-4-yl)-2,3-dimethylcyclopropane-1-carboxamide] | 1.3 | 1.6 |
| CCn1c(-c2cc(-c3cc([C@H]4COCCN4C)on3)cnc2[C@H](C)OC)c2c3cc(ccc31)-c1csc(n1)C[C@H](NC(=O)[C@H]1[C@H](C)[C@@H]1C)C(=O)N1CCC[C@H](N1)C(=O)OCC(C)(C)C2 (atropisomer, axis not shown) [Compound 33, (1r,2R,3S)-N-((6^3S,4S,Z)-1^1-ethyl-1^2-(2-((S)-1-methoxyethyl)-5-(5-((R)-4-methylmorpholin-3-yl)isoxazol-3-yl)pyridin-3-yl)-10,10-dimethyl-5,7-dioxo-6^1,6^2,6^3,6^4,6^5,6^6-hexahydro-1^1H-8-oxa-2(4,2)-thiazola-1(5,3)-indola-6(1,3)-pyridazinacycloundecaphane-4-yl)-2,3-dimethylcyclopropane-1-carboxamide] | 0.86 | 2.1 |
| CCn1c(-c2cc(-c3cc(C4(C)CN(C)C4)on3)cnc2[C@H](C)OC)c2c3cc(ccc31)-c1csc(n1)C[C@H](NC(=O)[C@H]1[C@H](C)[C@@H]1C)C(=O)N1CCC[C@H](N1)C(=O)OCC(C)(C)C2 (atropisomer, axis not shown) [Compound 34, (1r,2R,3S)-N-((6^3S,4S,Z)-1^2-(5-(5-(1,3-dimethylazetidin-3-yl)isoxazol-3-yl)-2-((S)-1-methoxyethyl)pyridin-3-yl)-1^1-ethyl-10,10-dimethyl-5,7-dioxo-6^1,6^2,6^3,6^4,6^5,6^6-hexahydro-1^1H-8-oxa-2(4,2)-thiazola-1(5,3)-indola-6(1,3)-pyridazinacycloundecaphane-4-yl)-2,3-dimethylcyclopropane-1-carboxamide] | 0.16 | 0.17 |
| CCn1c(-c2cc(-c3cnc(CN4CCOCC4)cn3)cnc2[C@H](C)OC)c2c3cc(ccc31)-c1csc(n1)C[C@H](NC(=O)[C@H]1C[C@@H]1C)C(=O)N1CCC[C@H](N1)C(=O)OCC(C)(C)C2 (atropisomer, axis not shown) [Compound 35, (1S,2S)-N-((6^3S,4S,Z)-1^1-ethyl-1^2-(2-((S)-1-methoxyethyl)-5-(5-(morpholinomethyl)pyrazin-2-yl)pyridin-3-yl)-10,10-dimethyl-5,7-dioxo-6^1,6^2,6^3,6^4,6^5,6^6-hexahydro-1^1H-8-oxa-2(4,2)-thiazola-1(5,3)-indola-6(1,3)-pyridazinacycloundecaphane-4-yl)-2-methylcyclopropane-1-carboxamide] | 4 | 2 |
| CCn1c(-c2cc(-c3ccn(CCN4CCOCC4)c(=O)c3)cnc2[C@H](C)OC)c2c3cc(ccc31)-c1csc(n1)C[C@H](NC(=O)[C@H]1[C@H](C)[C@@H]1C)C(=O)N1CCC[C@H](N1)C(=O)OCC(C)(C)C2 (atropisomer, axis not shown) [Compound 36, (1r,2R,3S)-N-((6^3S,4S,Z)-1^1-ethyl-1^2-(6-((S)-1-methoxyethyl)-1′-(2-morpholinoethyl)-2′-oxo-1′,2′-dihydro-[3,4′-bipyridin]-5-yl)-10,10-dimethyl-5,7-dioxo-6^1,6^2,6^3,6^4,6^5,6^6-hexahydro-1^1H-8-oxa-2(4,2)-thiazola-1(5,3)-indola-6(1,3)-pyridazinacycloundecaphane-4-yl)-2,3-dimethylcyclopropane-1-carboxamide] | 0.39 | 1 |
| CCn1c(-c2cc(-c3cncc(CN4CCS(=O)(=O)CC4)c3)cnc2[C@H](C)OC)c2c3cc(ccc31)-c1csc(n1)C[C@H](NC(=O)[C@H]1[C@H](C)[C@@H]1C)C(=O)N1CCC[C@H](N1)C(=O)OCC(C)(C)C2 (atropisomer, axis not shown) [Compound 37, (1r,2R,3S)-N-((6^3S,4S,Z)-12-(5′-((1,1-dioxidothiomorpholino)methyl)-6-((S)-1-methoxyethyl)-[3,3′-bipyridin]-5-yl)-1^1-ethyl-10,10-dimethyl-5,7-dioxo-6^1,6^2,6^3,6^4,6^5,6^6-hexahydro-1^1H-8-oxa-2(4,2)-thiazola-1(5,3)-indola-6(1,3)-pyridazinacycloundecaphane-4-yl)-2,3-dimethylcyclopropane-1-carboxamide] | 0.9 | 1.8 |
| CCn1c(-c2cc(-c3cnc(CN4CCS(=O)(=O)CC4)nc3)cnc2[C@H](C)OC)c2c3cc(ccc31)-c1csc(n1)C[C@H](NC(=O)[C@H]1C[C@@H]1C)C(=O)N1CCC[C@H](N1)C(=O)OCC(C)(C)C2 (atropisomer, axis not shown) [Compound 38, (1S,2S)-N-((6^3S,4S,Z)-1^2-(5-(2-((1,1-dioxidothiomorpholino)methyl)pyrimidin-5-yl)-2-((S)-1-methoxyethyl)pyridin-3-yl)-1^1-ethyl-10,10-dimethyl-5,7-dioxo-6^1,6^2,6^3,6^4,6^5,6^6-hexahydro-1^1H-8-oxa-2(4,2)-thiazola-1(5,3)-indola-6(1,3)-pyridazinacycloundecaphane-4-yl)-2-methylcyclopropane-1-carboxamide] | 66 | 23 |
| CCn1c(-c2cc(-c3cnc(CN4CCOCC4)nc3)cnc2[C@H](C)OC)c2c3cc(ccc31)-c1csc(n1)C[C@H](NC(=O)[C@H]1[C@H](C)[C@@H]1C)C(=O)N1CCC[C@H](N1)C(=O)OCC(C)(C)C2 (atropisomer, axis not shown) [Compound 39, (1r,2R,3S)-N-((6^3S,4S,Z)-1^1-ethyl-1^2-(2-((S)-1-methoxyethyl)-5-(2-(morpholinomethyl)pyrimidin-5-yl)pyridin-3-yl)-10,10-dimethyl-5,7-dioxo-6^1,6^2,6^3,6^4,6^5,6^6-hexahydro-1H-8-oxa-2(4,2)-thiazola-1(5,3)-indola-6(1,3)-pyridazinacycloundecaphane-4-yl)-2,3-dimethylcyclopropane-1-carboxamide] | 0.57 | 0.48 |
| CCn1c(-c2cc(-c3ccc(=O)n(CCN4CCOCC4)c3)cnc2[C@H](C)OC)c2c3cc(ccc31)-c1csc(n1)C[C@H](NC(=O)[C@H]1C[C@@H]1C)C(=O)N1CCC[C@H](N1)C(=O)OCC(C)(C)C2 (atropisomer, axis not shown) [Compound 40, (1S,2S)-N-((6^3S,4S,Z)-1^1-ethyl-1^2-(6-((S)-1-methoxyethyl)-1′-(2-morpholinoethyl)-6′-oxo-1′,6′-dihydro-[3,3′-bipyridin]-5-yl)-10,10-dimethyl-5,7-dioxo-6^1,6^2,6^3,6^4,6^5,6^6-hexahydro-1^1H-8-oxa-2(4,2)-thiazola-1(5,3)-indola-6(1,3)-pyridazinacycloundecaphane-4-yl)-2-methylcyclopropane-1-carboxamide] | 9.2 | 10 |
| CCn1c(-c2cc(-c3ccc(CN4CCN(C)CC4)cn3)cnc2[C@H](C)OC)c2c3cc(ccc31)-c1csc(n1)C[C@H](NC(=O)[C@H]1C[C@@H]1C)C(=O)N1CCC[C@H](N1)C(=O)OCC(C)(C)C2 (atropisomer, axis not shown) [Compound 41, (1S,2S)-N-((6^3S,4S,Z)-1^1-ethyl-1^2-(6′-((S)-1-methoxyethyl)-5-((4-methylpiperazin-1-yl)methyl)-[2,3′-bipyridin]-5′-yl)-10,10-dimethyl-5,7-dioxo-6^1,6^2,6^3,6^4,6^5,6^6-hexahydro-1^1H-8-oxa-2(4,2)-thiazola-1(5,3)-indola-6(1,3)-pyridazinacycloundecaphane-4-yl)-2-methylcyclopropane-1-carboxamide] | 2.6 | 3.7 |
| CCn1c(-c2cc(-c3cncc(CN4CCS(=N)(=O)CC4)c3)cnc2[C@H](C)OC)c2c3cc(ccc31)-c1csc(n1)C[C@H](NC(=O)[C@H]1[C@H](C)[C@@H]1C)C(=O)N1CCC[C@H](N1)C(=O)OCC(C)(C)C2 (atropisomer, axis not shown) [Compound 42, (1r,2R,3S)-N-((6^3S,4S,Z)-1^1-ethyl-1^2-(5′-((1-imino-1-oxido-16-thiomorpholino)methyl)-6-((S)-1-methoxyethyl)-[3,3′-bipyridin]-5-yl)-10,10-dimethyl-5,7-dioxo-6^1,6^2,6^3,6^4,6^5,6^6-hexahydro-1^1H-8-oxa-2(4,2)-thiazola-1(5,3)-indola-6(1,3)-pyridazinacycloundecaphane-4-yl)-2,3-dimethylcyclopropane-1-carboxamide] | 3 | 3.5 |
| CCn1c(-c2cc(-c3cc4c(cn3)CN(C)C4)cnc2[C@H](C)OC)c2c3cc(ccc31)-c1csc(n1)C[C@H](NC(=O)[C@H]1C[C@@H]1C)C(=O)N1CCC[C@H](N1)C(=O)OCC(C)(C)C2 (atropisomer, axis not shown) [Compound 43, (1S,2S)-N-((6^3S,4S,Z)-1^1-ethyl-1^2-(2-((S)-1-methoxyethyl)-5-(2-methyl-2,3-dihydro-1H-pyrrolo[3,4-c]pyridin-6-yl)pyridin-3-yl)-10,10-dimethyl-5,7-dioxo-6^1,6^2,6^3,6^4,6^5,6^6-hexahydro-1^1H-8-oxa-2(4,2)-thiazola-1(5,3)-indola-6(1,3)-pyridazinacycloundecaphane-4-yl)-2-methylcyclopropane-1-carboxamide] | 17 | 3.8 |
